The values below come from US20080090805A1, “CB-1 MODULATING COMPOUNDS AND THEIR USE” (ACADIA PHARMACEUTICALS INC., priority 2005, published 2008).

Each structure is given as a SMILES string.

Usually % Inhibition stands for how much of the control response was suppressed. In general, microsomal CLint refers to a measure of how fast metabolising enzymes remove a compound, apart from limits set by blood flow. A higher microsomal CLint goes with faster metabolism. As a reminder, the inhibition is the relative decrease from the control value, in per cent. A low value points to little suppression.

For data set [1], the system named is C57 BK/6 mice. The data set can be described thus: Novel object recognition study. It counts as in vivo. The conditions noted are these: test 1 or 2 hours after dosing, CP 55,940 0.3 mg/kg ip, SR141716A 1 mg/kg ip, Compound II 3 mg/kg ip, FIGS. 10, 11. The method, then:
Subjects: Subjects were male, C57 BK/6 mice purchased from Harlan Laboratories, weighing 15-20 g upon arrival. Animals were housed 8 per cage with food and water available ad libidum. Animals were housed on a 12 hr light cycle (lights on 6 am) for 4-7 days prior to behavioral testing.
Equipment: Novel object recognition (NOR) was conducted in a novel environment consisting of a white plastic tub measuring 45.7×33.7×19 cm. Prior to each trial the bottom of the tub was covered with a piece of plastic lined bench top paper. There were two sets of identical objects chosen so that when given a opportunity to explore, mice would evenly divide exploration time between the objects. “A” objects were yellow, ceramic, 12-sided ramekins measuring 4 cm high×7 cm diameter. “B” objects were 8×8×4 cm stainless steel, 4-sided ramekins.
Procedure: At the beginning of each test day, animals were placed in groups of 6 into clean cages. Testing was conducted in three phases: acclimation, sample and test. […] Each mouse was allowed to explore the chamber and the objects for 3 min., and the time spent exploring at each position was recorded. Directly sniffing or touching the object was recorded as exploration. […] The test sessions were recorded on video and scored by an observer blind to each subject's treatment condition. Any time spent directly sniffing or touching an object was counted as exploration. […]

For data set [2], the system named is fasted Sprague-Dawley rats. Kind of data set: Acute feeding study. It counts as in vivo. The conditions noted are these: 1, 3, 10 mg/kg, dose-dependent, FIGS. 2-4. How it is done:
Male, Sprague-Dawley rats (90-120 g) served as subjects for these studies. Rats were fasted for a period of 16 hrs (water was always available). After the fasting period, test compounds were administered either intraperitoneally (ip) or orally (po). Immediately following compound administration, the rats were returned to their home cage. Following 30 min after compound administration, the rats were removed from their home cages and placed individually into clean cages with a pre-measured amount of food. Food weights were obtained (to the nearest 0.1 g) at various time points. Food consumption was monitored for a period of up to 2 hrs (i.e., 2.5 hr after test compound administration).

Data set [3] relates to NSA mice. Kind of data set: Hypothermia study (block of CP 55,940-induced hypothermia). It counts as in vivo. As to conditions: pretreatment 30 min prior to CP55,940, dose-dependent, FIG. 6. The method, then:
. […] Core body temperatures were then obtained at various time points following CP 55,940 administration. Core body temperature (to the nearest 0.1° C.) was obtained by rectal probe.

Data set [4] has as its system NSA mice. The data set can be described thus: Tail flick study (block of CP 55,940 antinociception). As to conditions: test compound ip 30 min prior to CP55,940, FIGS. 5A, 5B.
The subject of data set [5] is rats with unilateral 6-OH dopamine lesions. The data set can be described thus: Rotation study (unilateral 6-hydroxy-dopamine lesion). The data set is classed as in vivo. The conditions noted are these: 6-OH dopamine lesioned rats; apomorphine 0.05, 0.16, 0.5 mg/kg ip; Compound II 3 mg/kg; FIGS. 14-16.
The subject of data set [6] is obese Zucker rats. The data set can be described thus: Chronic feeding study. It counts as in vivo. The conditions noted are these: 1, 3, 10 mg/kg/day, dose-dependent, FIGS. 9A-9D. How it is done:
Male, obese Zucker rats (400-500 g) served as subjects for these studies. Rats were housed individually and had access to food and water ad libitum. Rats were allowed to acclimate to the vivarium for a period of 3 days, during which body weight and consumption of food and water was monitored. […] Daily food and water intakes were also monitored. Food and water bottles were weighed at the time body weights were recorded (i.e., 1350 hr). Vehicle or compound was administered daily for a period of up to 15 days.

In data set [7] the target is CB1 (wild-type) (Homo sapiens, UniProt P21554). The data set can be described thus: R-SAT functional receptor assay, CB1 (wild-type). As to conditions: for IC50: Table 1, inhibition of constitutive receptor response; for Emax: Table 1, relative to the ligand SR141716 (100%), read-out: % Inhibition. The data set is classed as cell-based.
Sequence of CB1 (wild-type) (P21554 whole entry, the tested form may be a part): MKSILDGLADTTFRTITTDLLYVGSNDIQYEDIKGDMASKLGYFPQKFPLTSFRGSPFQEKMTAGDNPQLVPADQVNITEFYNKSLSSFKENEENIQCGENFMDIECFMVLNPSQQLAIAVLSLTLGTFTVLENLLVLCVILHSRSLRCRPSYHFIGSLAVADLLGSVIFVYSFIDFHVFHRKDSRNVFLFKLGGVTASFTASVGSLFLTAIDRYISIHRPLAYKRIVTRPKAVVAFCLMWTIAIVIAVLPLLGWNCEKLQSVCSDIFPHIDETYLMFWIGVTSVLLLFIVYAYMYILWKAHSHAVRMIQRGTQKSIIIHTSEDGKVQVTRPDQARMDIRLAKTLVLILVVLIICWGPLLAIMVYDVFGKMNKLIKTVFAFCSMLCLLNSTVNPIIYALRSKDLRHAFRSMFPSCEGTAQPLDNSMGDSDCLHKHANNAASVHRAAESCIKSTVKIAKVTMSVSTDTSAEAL
The target in data set [8] is CB1 (mutant) (Homo sapiens, UniProt P21554). The data set can be described thus: R-SAT functional receptor assay, CB1 (mutant, truncated after amino acid 417). It counts as cell-based. As to conditions: Table 1, CB1 (mutant); for IC50: inhibition of constitutive receptor response, read-out: pIC50 (converted); for % Inhibition: relative to the ligand SR141716 (100%).
Sequence of CB1 (mutant) (P21554 1-417, change not shown): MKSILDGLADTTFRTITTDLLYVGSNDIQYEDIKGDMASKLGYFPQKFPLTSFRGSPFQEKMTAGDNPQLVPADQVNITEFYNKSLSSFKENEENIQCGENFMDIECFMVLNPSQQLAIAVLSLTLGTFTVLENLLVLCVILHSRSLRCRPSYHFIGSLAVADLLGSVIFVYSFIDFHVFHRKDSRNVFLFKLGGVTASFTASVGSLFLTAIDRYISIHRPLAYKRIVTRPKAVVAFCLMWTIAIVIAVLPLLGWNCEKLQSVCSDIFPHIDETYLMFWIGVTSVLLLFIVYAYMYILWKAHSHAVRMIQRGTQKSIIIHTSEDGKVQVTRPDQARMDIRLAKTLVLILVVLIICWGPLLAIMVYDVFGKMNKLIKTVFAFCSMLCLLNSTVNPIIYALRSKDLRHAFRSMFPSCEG
The target in data set [9] is native CB1 receptors (Rattus norvegicus, UniProt P20272). The data set can be described thus: CB1 receptor rat binding assay ([3H]SR141716A, rat brain membranes). The conditions noted are these: rat brain membranes; 3 nM [3H]SR141716A; read-out: Rat Brain pKi (converted).
Sequence of native CB1 receptors (P20272 whole entry): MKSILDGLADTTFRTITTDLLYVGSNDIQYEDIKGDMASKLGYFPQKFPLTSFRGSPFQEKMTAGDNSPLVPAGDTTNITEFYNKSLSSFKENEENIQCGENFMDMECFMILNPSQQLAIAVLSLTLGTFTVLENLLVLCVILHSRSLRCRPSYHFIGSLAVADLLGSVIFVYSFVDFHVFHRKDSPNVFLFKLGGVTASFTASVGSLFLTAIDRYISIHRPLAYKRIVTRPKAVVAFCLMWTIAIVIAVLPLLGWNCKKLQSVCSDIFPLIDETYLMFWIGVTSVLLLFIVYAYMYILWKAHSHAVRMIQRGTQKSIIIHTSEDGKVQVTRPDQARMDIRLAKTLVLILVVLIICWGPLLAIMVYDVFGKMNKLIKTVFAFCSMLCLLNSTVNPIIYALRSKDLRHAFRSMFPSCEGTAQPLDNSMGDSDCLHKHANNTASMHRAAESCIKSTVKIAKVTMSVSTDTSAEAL
Data set [10] in a line: in vitro. As to conditions: rat, microsomes, pH 7.4.
For data set [11] the following is noted: microsomes.
Data set [12] is described as follows: in vitro. As to conditions: mouse, microsomes, pH 7.4.
The target of data set [13] is hERG (Homo sapiens, UniProt Q12809). The data set can be described thus: in vitro. The conditions noted are these: pH 7.4.
Sequence of hERG (Q12809 whole entry): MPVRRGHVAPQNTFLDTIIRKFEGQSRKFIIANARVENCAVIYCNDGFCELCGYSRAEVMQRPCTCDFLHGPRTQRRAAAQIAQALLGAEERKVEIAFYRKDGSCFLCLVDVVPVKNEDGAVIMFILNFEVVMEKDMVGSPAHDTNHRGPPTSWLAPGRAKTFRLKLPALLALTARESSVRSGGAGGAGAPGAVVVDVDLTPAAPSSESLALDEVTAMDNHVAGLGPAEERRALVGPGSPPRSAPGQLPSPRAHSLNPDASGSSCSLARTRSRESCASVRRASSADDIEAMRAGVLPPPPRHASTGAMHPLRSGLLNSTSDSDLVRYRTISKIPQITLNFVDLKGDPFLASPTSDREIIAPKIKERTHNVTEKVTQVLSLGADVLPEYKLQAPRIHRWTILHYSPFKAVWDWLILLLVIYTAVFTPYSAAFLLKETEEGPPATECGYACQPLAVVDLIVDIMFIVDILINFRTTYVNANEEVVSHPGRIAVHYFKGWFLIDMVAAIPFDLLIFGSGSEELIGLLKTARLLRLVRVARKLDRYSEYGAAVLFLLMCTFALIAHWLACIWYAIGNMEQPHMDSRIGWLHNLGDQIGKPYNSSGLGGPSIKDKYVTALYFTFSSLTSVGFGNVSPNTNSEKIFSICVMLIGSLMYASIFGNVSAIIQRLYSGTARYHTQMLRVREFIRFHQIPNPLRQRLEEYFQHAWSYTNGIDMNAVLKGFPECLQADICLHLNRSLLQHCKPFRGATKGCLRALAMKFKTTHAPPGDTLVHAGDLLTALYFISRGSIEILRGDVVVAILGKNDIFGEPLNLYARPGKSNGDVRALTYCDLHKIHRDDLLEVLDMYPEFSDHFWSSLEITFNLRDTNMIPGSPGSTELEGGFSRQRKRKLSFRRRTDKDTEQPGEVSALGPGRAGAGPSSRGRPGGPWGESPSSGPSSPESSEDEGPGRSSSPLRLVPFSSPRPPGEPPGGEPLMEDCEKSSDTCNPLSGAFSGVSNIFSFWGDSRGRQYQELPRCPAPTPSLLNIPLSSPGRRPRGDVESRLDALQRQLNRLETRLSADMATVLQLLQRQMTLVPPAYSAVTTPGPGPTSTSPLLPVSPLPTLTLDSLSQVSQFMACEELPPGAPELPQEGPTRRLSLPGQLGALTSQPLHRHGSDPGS

As to `CCCCCCC(C)(C)c1ccc([C@@H]2C[C@H](O)CC[C@H]2CCCO)c(O)c1` [CP 55,940, reference compound], the “preference for the novel object (exploration ratio, discrimination index)” value in [1] was “showed a preference for the novel object after 1 hour of being dosed with the test compound but then returned back to baseline exploration rates after 2 hours”.

Regarding `O=C(NN1CCCCC1)c1ccc2c(c1)N=C(C1CCCCC1)c1ccccc1S2` [Compound I, 11-Cyclohexyl-dibenzo[b,f][1,4]thiazepine-8-carboxylic acid piperidin-1-ylamide], the cumulative food intake result in data set [2] is recorded as “suppresses the cumulative food intake in fasted rats”. In addition, the “effect on CP 55,940-induced hypothermia (core body temperature)” value in [3] is reported as “attenuates CP 55,940-induced hypothermia”. For the same molecule, in [4], the “effect on antinociceptive actions of CP55,940 (tail flick latency)” value is listed as “attenuates the antinociceptive actions of CP55,940”.

On to `CCCCNC(=O)c1ccc2c(c1)N=C(c1ccc(Cl)cc1)c1ccccc1S2` [Compound II, N-(butyl)-11-(4-chlorophenyl)-dibenzo[b,f,][1,4]thiazepine-8-carboxamide], for which the “preference for the novel object (exploration ratio, discrimination index)” value in data set [1] was “showed a preference for the novel object”. Besides, in data set [5], the contralateral rotations result is given as “augments dopaminergic functions”. In addition, in [6], the “food and water intake” value is “attenuated the food and water intake of the rats”.

For `CC(C)CNC(=O)c1ccc2c(c1)N=C(c1ccc(Cl)s1)c1ccccc1S2` [Example 11, 11-(5-Chlorothiophen-2-yl)-dibenzo[b,f][1,4]thiazepine-8-carboxylic acid isobutylamide], in [7], the IC50 was 15.8 nM and the Emax is 84%. For the same molecule, in [8], the IC50 is 126 nM and the “% Inhibition” value was determined as 95%. In data set [9], the Ki was 10 nM.

Turning to `Cc1ccc(N2CCN(C(=O)c3ccc4c(c3)N=C(C3CCCCC3)c3ccccc3S4)CC2)c(C)c1` [Example 18, (11-Cyclohexyl-dibenzo[b,f][1,4]thiazepin-8-yl)-[4-(2,4-dimethyl-phenyl)-piperazin-1-yl]methanone], in [7], the IC50 is 39.8 nM and the Emax amounted to 99%. In [8], the IC50 is 200 nM and the “% Inhibition” value turned out to be 99%.

Consider `CN1CCc2cccc3c2[C@H]1Cc1ccc(O)c(O)c1-3` [apomorphine, reference compound], for which, in data set [5], the contralateral rotations entry is recorded as “dose-dependently elicits contralateral rotations”.

Turning to `CCCCNC(=O)c1ccc2c(c1)N=C(c1ccc(Cl)cc1)c1ccc(Cl)cc1S2` [drawing 1732], the figures for the microsomal CLint at 1 μM in data set [10] and in [12] were 24 µL/min/mg and 29 µL/min/mg, respectively. For the same molecule, in data set [11], the “Clearance Human” value is 0.

In data set [13], `O=C(NN1CCCCC1)c1ccc2c(c1)N=C(c1ccc(F)cc1)c1ccccc1S2` [drawing 1815] registered an inhibition at 1 µM of 91%.

In turn, `CC(C)CNC(=O)c1ccc2c(c1)N=C(c1ccc(Cl)cc1)c1ccccc1S2` [drawing 1818] returned an inhibition at 1 µM in data set [13] of 69%.

For the molecule `O=C(NN1CCCCCC1)c1ccc2c(c1)N=C(c1cccc(F)c1)c1ccccc1S2` [drawing 1827], in [13], testing at 1 µM gave an inhibition of 88%.

In the case of `O=C(NN1CCCCC1)c1ccc2c(c1)N=C(c1ccc(Cl)s1)c1ccccc1S2` [drawing 1829], the inhibition at 1 µM in data set [13] is 66%.

In turn, `O=C(NC1CCC(F)(F)CC1)c1ccc2c(c1)N=C(c1cccc(Cl)c1)c1ccccc1S2` [drawing 1838] came in with an inhibition at 1 µM in data set [13] of 62%.
